For data set [1], the system named is Penicillinsensitive S. aureus (5 strains). In words: MIC by two-fold serial agar dilution, group (G+)-Ia. Type of data set: cell-based. As to conditions: Mueller-Hinton agar, penicillin-sensitive S. aureus, Example 1: two different batches; for MIC: Staphylococcus aureus, read-out: Geometric Mean of MIC (G+)-Ia. The source says: (§1) The preferred compounds of Formula I are those in which R^1 is hydrogen, R^2 is methyl, R^3 is methyl or ethyl, and R^4 is methyl, ethyl, 2-hydroxyethyl, 2-(dimethylamino)ethyl, allyl or pyridylmethyl. Particularly preferred compounds are those in which R^1 is hydrogen, R^2 and R^3 are methyl, and R^4 is methyl, 2-hydroxyethyl or allyl. The most preferred compound is that in which R^1 is hydrogen and R^2, R^3 and R^4 are methyl. In the primary evaluation of the preferred compounds of this invention, the Minimum Inhibitory Concentrations (MIC's) of the compounds were determined by the two-fold serial agar dilution method in Mueller-Hinton agar against 32 strains of test organisms in six groups.
(G+)Ia: Penicillinsensitive S. aureus (5 strains)

In data set [2] the test system is Penicillinresistant S. aureus (5 strains). In words: MIC by two-fold serial agar dilution, group (G+)-Ib. In kind it is cell-based. The following applies: Staphylococcus aureus, Mueller-Hinton agar, penicillin-resistant S. aureus, Example 1: two different batches, read-out: Geometric Mean of MIC (G+)-Ib.
Source text: as §1
(G+)Ib: Penicillinresistant S. aureus (5 strains)

The test system of data set [3] is Cephalothinsensitive E. coli (2 strains), Kl. pneumoniae (1 strain) and Pr. mirabilis (2 strains). In words: MIC by two-fold serial agar dilution, group (G-)-Ia. Type of data set: cell-based. The following applies: Mueller-Hinton agar, cephalothin-sensitive, 5 strains, Example 1: two different batches; for MIC: read-out: Geometric Mean of MIC (G-)-Ia.
Source text: as §1
(G-)Ia: Cephalothinsensitive E. coli (2 strains), Kl. pneumoniae (1
strain) and Pr. mirabilis (2 strains)

The test system of data set [4] is Cephalothinresistant E. coli (3 strains) and Kl. pneumoniae (3 strains). Put plainly: MIC by two-fold serial agar dilution, group (G-)-Ib. In kind it is cell-based. The following applies: cephalothin-resistant, 6 strains, Example 1: two different batches; for MIC: Escherichia coli, read-out: Geometric Mean of MIC (G-)-Ib, Mueller-Hinton agar.
Source text: as §1
(G-)Ib: Cephalothinresistant E. coli (3 strains) and Kl. pneumoniae (3

Data set [5] concerns Pr. morganii (1 strain), Ent. cloacae (2 strains) and Ser. marcescens (2 strains). Put plainly: MIC by two-fold serial agar dilution, group (G-)-II. Type of data set: cell-based. The following applies: Mueller-Hinton agar; 5 strains; Example 1: two different batches; read-out: Geometric Mean of MIC (G-)-II.
Source text: as §1
(G-)II: Pr. morganii (1 strain), Ent. cloacae (2 strains) and Ser.

Data set [6] concerns Ps. aeruginosa (6 strains). In words: MIC by two-fold serial agar dilution, group (G-)-III. Type of data set: cell-based. As to conditions: Mueller-Hinton agar, Example 1: two different batches; for MIC: Pseudomonas aeruginosa, read-out: Geometric Mean of MIC (G-)-III.
Source text: as §1
(G-)III: Ps. aeruginosa (6 strains)

A short description of data set [7]: Mouse blood levels following a single intramuscular injection. Type of data set: in vivo. As to conditions: im, mice, 20 mg/kg. As for the experimental part:
The absorption of the most preferred Compound Ia (prepared in Example 1) was determined in mice following a single intramuscular injection of the test compound (dissolved in 0.1M phosphate buffer; pH 7) at a dosage of 20 mg/kg. Blood samples were collected from the orbital sinuses into heparinized capillary tubes and assayed in Mueller-Hinton medium using Morganella morganii A9695 as the test organism. The blood levels at various time intervals, the half-life values (t1/2) and the areas under the curve (AUC) are shown in Table 2.

The subject of another data set is S. pyogenes (6 strains). In words: In vitro activity against fastidious bacteria in GC agar: S. pyogenes. In kind it is cell-based. The following applies: Streptococcus pyogenes, read-out: Geometric Mean of MIC. As for the experimental part:
(§2) The in vitro activity of the most preferred Compound Ia against 31 strains of fastidious bacteria was determined in GC agar, and the results are shown in Table 3.

For the next data set, the system named is S. pneumoniae (6). In words: In vitro activity against fastidious bacteria in GC agar: S. pneumoniae. In kind it is cell-based. As to conditions: Streptococcus pneumoniae, 6 strains, read-out: Geometric Mean of MIC. As for the experimental part:
as §2

In the next data set the test system is N. gonorrhoeae (4). Put plainly: In vitro activity against fastidious bacteria in GC agar: N. gonorrhoeae. In kind it is cell-based. As to conditions: Neisseria gonorrhoeae, 4 strains, read-out: Geometric Mean of MIC. On the procedure:
as §2

A further data set concerns N. meningitidis (5). Put plainly: In vitro activity against fastidious bacteria in GC agar: N. meningitidis. Type of data set: cell-based. The following applies: Neisseria meningitidis, 5 strains, read-out: Geometric Mean of MIC. On the procedure:
as §2

Data set [8] has as its system H. influenzae (7) (ampicillin sensitive). Put plainly: In vitro activity against fastidious bacteria in GC agar: H. influenzae (ampicillin sensitive). In kind it is cell-based. As to conditions: Haemophilus influenzae, 7 strains, read-out: Geometric Mean of MIC. As for the experimental part:
as §2

The subject of data set [9] is H. influenzae (3) (ampicillin resistant). In words: In vitro activity against fastidious bacteria in GC agar: H. influenzae (ampicillin resistant). In kind it is cell-based. As to conditions: Haemophilus influenzae, 3 strains, read-out: Geometric Mean of MIC. As for the experimental part: as §2

The structures appear in SMILES notation.

Here are results for five molecules from patent US4457929A, “3-Quaternary ammonium methyl)-substituted cephalosporin derivatives” (Bristol-Myers Company, priority 1982, dated 1984).

Turning to `CO/N=C(\C(=O)NC1C(=O)N2C(C(=O)[O-])=C(C[N+](C)(C)C)CSC12)c1csc(N)n1` (centres unmarked) [Example 1, 7-[(Z)-2-(2-Aminothiazol-4-yl)-2-methoxyiminoacetamido]-3-(trimethylammonium)methyl-3-cephem-4-carboxylate], in data set [1], the “Geometric Mean of MIC (G+)-Ia” value came out at 1.6 µg/mL. For the same molecule, the MIC in data set [1] worked out at 1.1 µg/mL; in data set [2] it was 3.6 µg/mL; in data set [3], 0.033 µg/mL; in [4], 0.25 µg/mL; in [5] it was 0.69 µg/mL; in [6], 3.2 µg/mL. Further, the MIC in the data set on S. pyogenes (6 strains) was 0.013 µg/mL; in the data set with S. pneumoniae (6) it was 0.013 µg/mL; in the data set on N. gonorrhoeae (4), 0.013 µg/mL; with N. meningitidis (5) it was 0.016 µg/mL; in data set [8] it was 0.013 µg/mL; in data set [9], 0.2 µg/mL. Further, the “Geometric Mean of MIC (G-)-Ia” value in [3] was determined as 0.029 µg/mL. For the same molecule, the “Geometric Mean of MIC (G-)-Ib” value in [4] (Mueller-Hinton agar) was 0.20 µg/mL. In addition, in [6], the “Geometric Mean of MIC (G-)-III” value was determined as 4.0 µg/mL. The same molecule had an exposure (AUC) in [7] of 10000 ng·h/mL. Besides, in data set [7], the half-life was found to be 24 min. Moreover, the concentration at 10 min in data set [7] (10 minutes, read-out: Blood levels at minutes after administration: 10) amounted to 14000 ng/mL. Further, in [7] (20 minutes, read-out: Blood levels at minutes after administration: 20), the concentration at 20 min was 12000 ng/mL. In addition, the concentration at 0.5 h in data set [7] (30 minutes, read-out: Blood levels at minutes after administration: 30) was found to be 8800 ng/mL. Also, in data set [7] (40 minutes, read-out: Blood levels at minutes after administration: 40), the concentration at 40 min came out at 7500 ng/mL. Besides, the concentration at 50 min in data set [7] (50 minutes, read-out: Blood levels at minutes after administration: 50) turned out to be 4700 ng/mL. Also, in data set [7] (60 minutes, read-out: Blood levels at minutes after administration: 60), the concentration at 1 h came to 4400 ng/mL. The concentration at 1.5 h in data set [7] (90 minutes, read-out: Blood levels at minutes after administration: 90) was determined as 1500 ng/mL. The concentration at 2 h in data set [7] (120 minutes, read-out: Blood levels at minutes after administration: 120) was determined as 740 ng/mL.
As for `CO/N=C(\C(=O)NC1C(=O)N2C(C(=O)[O-])=C(C[N+](C)(C)CCO)CSC12)c1csc(N)n1` (centres unmarked) [Example 2, 7-[(Z)-2-(2-Aminothiazol-4-yl)-2-methoxyiminoacetamido]-3-[N,N-dimethyl-N-(2-hydroxyethyl)ammonium]methyl-3-cephem-4-carboxylate], the MIC in data set [1] amounted to 1.6 µg/mL; in data set [2], 4.7 µg/mL; in data set [3], 0.038 µg/mL; in [4], 0.18 µg/mL; in [5], 0.6 µg/mL; in data set [6] it was 3.5 µg/mL.
Regarding `C=CC[N+](C)(C)CC1=C(C(=O)[O-])N2C(=O)C(NC(=O)/C(=N\OC)c3csc(N)n3)C2SC1` (centres unmarked) [Example 3, 7-[(Z)-2-(2-Aminothiazol-4-yl)-2-methoxyiminoacetamido]-3-(N,N-dimethyl-N-allylammonium)methyl-3-cephem-4-carboxylate], the MIC in [1] is 1.4 µg/mL; in [2], 3.6 µg/mL; in data set [3], 0.044 µg/mL; in [4], 0.22 µg/mL; in [5], 0.69 µg/mL; in data set [6], 5.6 µg/mL.
`CO/N=C(\C(=O)NC1C(=O)N2C(C(=O)[O-])=C(C[N+](C)(C)Cc3cccnc3)CSC12)c1csc(N)n1` (centres unmarked) [Example 4, 7-[(Z)-2-(2-Aminothiazol-4-yl)-2-methoxyiminoacetamido]-3-[N,N-dimethyl-N-(3-pyridylmethyl)ammonium]methyl-3-cephem-4-carboxylate]: the MIC in [1] was 2.1 µg/mL; in data set [2], 4.7 µg/mL; in data set [3] it was 0.057 µg/mL; in [4], 0.22 µg/mL; in data set [5], 0.69 µg/mL; in [6] it was 7.1 µg/mL.
Take `CCO/N=C(\C(=O)NC1C(=O)N2C(C(=O)[O-])=C(C[N+](C)(C)C)CSC12)c1csc(N)n1` (centres unmarked) [Example 8, 7-[(Z)-2-(2-Aminothiazol-4-yl)-2-ethoxyiminoacetamido]-3-(trimethylammonium)methyl-3-cephem-4-carboxylate]: the MIC in data set [1] stood at 2.1 µg/mL; in data set [2], 5.5 µg/mL; in [3], 0.087 µg/mL; in [4], 0.5 µg/mL; in data set [5], 1.4 µg/mL; in data set [6], 7.9 µg/mL.
